Reference: US9096560B2, “5-heterocyclylalkyl-3-hydroxy-2-phenylcyclopent-2-enones as herbicides” (Syngenta Limited, priority 2008, dated 2015)

Columns and labels:
Assay type in all cases: in vivo
Avena fatua (AVEFA) [1] = experiment: Example B post-emergence herbicidal test, AVEFA; conditions: Avena fatua, 312 h, rate 250 g/ha, evaluated after 13 days, scale 0-100, read-out: Post-emergence activity AVEFA (100=total damage to plant; 0=no damage to plant)
Procedure, shortened: (§1)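 Plants grown from seed in standard soil for 8 days in a glasshouse (24/16 °C day/night, 14 h light, 65% humidity), then sprayed with an aqueous solution from the active ingredient formulated in acetone/water (50:50) with 0.5% Tween 20. Damage scored after 13 days, 0 (none) to 100 (total).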

Avena fatua (AVEFA) [2] = experiment: Example B pre-emergence herbicidal test, AVEFA; conditions: Avena fatua, 312 h, rate 250 g/ha, evaluated after 13 days, 100=total damage to plant, 0=no damage to plant
Procedure, shortened: (§2)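 Plants were rated 13 days after treatment, 0 = no damage to 100 = total damage. They were grown in a glasshouse at 24/16 °C, 14 h light, 65% humidity and watered twice daily. Pre-emergence spray was applied one day after sowing, formulated in acetone/water 50:50 with 0.5% Tween 20.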

Lolium perenne (LOLPE) [3] = experiment: Example B post-emergence herbicidal test, LOLPE; conditions: Lolium perenne, 312 h, rate 250 g/ha, evaluated after 13 days, scale 0-100, read-out: Post-emergence activity LOLPE (100=total damage to plant; 0=no damage to plant)
Procedure, shortened: as §1

[4] = tested on: Alopecurus myosuroides (ALOMY); experiment: Example B pre-emergence herbicidal test, ALOMY; conditions: Alopecurus myosuroides, 312 h, rate 250 g/ha, evaluated after 13 days, 100=total damage to plant, 0=no damage to plant
Procedure, shortened: as §2

[5] = tested on: Echinochloa crus-galli (ECHCG); experiment: Example B post-emergence herbicidal test, ECHCG; conditions: Echinochloa crus-galli, 312 h, rate 250 g/ha, evaluated after 13 days, scale 0-100, read-out: Post-emergence activity ECHCG (100=total damage to plant; 0=no damage to plant)
Procedure, shortened: as §1

Lolium perenne (LOLPE) [6] = experiment: Example B pre-emergence herbicidal test, LOLPE; conditions: Lolium perenne, 312 h, rate 250 g/ha, evaluated after 13 days, 100=total damage to plant, 0=no damage to plant
Procedure, shortened: as §2

[7] = tested on: Alopecurus myosuroides (ALOMY); experiment: Example B post-emergence herbicidal test, ALOMY; conditions: Alopecurus myosuroides, 312 h, rate 250 g/ha, evaluated after 13 days, scale 0-100, read-out: Post-emergence activity ALOMY (100=total damage to plant; 0=no damage to plant)
Procedure, shortened: as §1

[8] = tested on: Echinochloa crus-galli (ECHCG); experiment: Example B pre-emergence herbicidal test, ECHCG; conditions: Echinochloa crus-galli, 312 h, rate 250 g/ha, evaluated after 13 days, 100=total damage to plant, 0=no damage to plant
Procedure, shortened: as §2

Row | SMILES | pest or weed control at 250 g/ha (Avena fatua (AVEFA) [1]) [%] | pest or weed control at 250 g/ha (Avena fatua (AVEFA) [2]) [%] | pest or weed control at 250 g/ha (Lolium perenne (LOLPE) [3]) [%] | pest or weed control at 250 g/ha [4] [%] | pest or weed control at 250 g/ha [5] [%] | pest or weed control at 250 g/ha (Lolium perenne (LOLPE) [6]) [%] | pest or weed control at 250 g/ha [7] [%] | pest or weed control at 250 g/ha [8] [%]
1 | Cc1cc(C)c(C2C(=O)CC(CC3CCN(S(=O)(=O)C(F)(F)F)CC3)C2=O)c(C)c1 (stereo not drawn) [Compound T112] | 30 | 20 | 30 | 40 | 30 | 50 | 40 | 30
2 | Cc1cc(C)c(C2C(=O)CC(CC3CCN(C(=O)CC(C)C)CC3)C2=O)c(C)c1 (stereo not drawn) [Compound T113] | 100 | 70 | 100 | 60 | 70 | 70 | 90 | 90
3 | Cc1cc(C)c(C2C(=O)CC(CC3CCN(C(=O)C4CCCC4)CC3)C2=O)c(C)c1 (stereo not drawn) [Compound T114] | 40 | 20 | 50 | 50 | 30 | 40 | 40 | 60
4 | Cc1cc(C)c(C2C(=O)CC(CC3CCN(C(=O)c4c(C)noc4C)CC3)C2=O)c(C)c1 (stereo not drawn) [Compound T118] | 80 | 20 | 30 | 40 | 40 | 40 | 60 | 30
5 | Cc1cc(C)c(C2C(=O)CC(CC3CCN(C(=O)c4cc(C)on4)CC3)C2=O)c(C)c1 (stereo not drawn) [Compound T119] | 80 | 30 | 90 | 40 | 90 | 80 | 90 | 100
6 | Cc1cc(C)c(C2C(=O)CC(CC3CCN(C(=O)N4CCCCC4)CC3)C2=O)c(C)c1 (stereo not drawn) [Compound T120] | 20 | 10 | 30 | 30 | 10 | 20 | 30 | 30
7 | Cc1cc(C)c(C2C(=O)CC(CC3CCN(C(=O)c4cc(C)nn4C)CC3)C2=O)c(C)c1 (stereo not drawn) [Compound T121] | 100 | 60 | 90 | 30 | 80 | 80 | 80 | 90
8 | Cc1cccc(C(=O)N2CCC(CC3CC(=O)C(c4c(C)cc(C)cc4C)C3=O)CC2)c1 (stereo not drawn) [Compound T122] | 30 | 20 | 80 | 20 | 70 | 50 | 60 | 70
9 | COCCOC(=O)N1CCC(CC2CC(=O)C(c3c(C)cc(C)cc3C)C2=O)CC1 (stereo not drawn) [Compound T123] | 90 | 60 | 70 | 60 | 60 | 60 | 80 | 60
10 | Cc1cc(C)c(C2C(=O)CC(CC3CCN(C(=O)c4cn(C)nc4C(F)F)CC3)C2=O)c(C)c1 (stereo not drawn) [Compound T124] | 30 | 10 | 20 | 20 | 20 | 20 | 30 | 30
11 | Cc1cc(C)c(C2C(=O)CC(CC3CCN(C(=O)c4ccsc4)CC3)C2=O)c(C)c1 (stereo not drawn) [Compound T126] | 70 | 40 | 70 | 30 | 60 | 60 | 50 | 50
12 | Cc1cc(C)c(C2C(=O)CC(CC3C[C@@H]4O[C@H]3[C@@H]3C(=O)N(C)C(=O)[C@@H]34)C2=O)c(C)c1 (stereo partly drawn) [Compound T128] | 90 | 40 | 50 | 70 | 50 | 50 | 40 | 60
13 | Cc1cc(C)c(C2C(=O)CC(CC3OCCO3)C2=O)c(C)c1 (stereo not drawn) [Compound T130] | 70 | 10 | 90 | 70 | 60 | 100 | 60 | 30
14 | Cc1cc(C)c(C2C(=O)CC(CC3CCN(C(=O)C(F)(F)C(F)F)C3)C2=O)c(C)c1 (stereo not drawn) [Compound T131] | 90 | 70 | 100 | 70 | 90 | 90 | 90 | 100
15 | Cc1cc(-c2ccc(Cl)cc2F)cc(C)c1C1C(=O)C/C(=C\C2CCOCC2)C1=O (stereo not drawn) [Compound T132] | 80 | 70 | 70 | 20 | 100 | 70 | 70 | 90
16 | Cc1cc(-c2ccc(Cl)cc2F)cc(C)c1C1C(=O)C/C(=C\C2CCOC2)C1=O (stereo not drawn) [Compound T135] | 80 | 30 | 70 | 0 | 90 | 40 | 80 | 60
17 | Cc1cc(Br)cc(C)c1C1C(=O)CC(CC2CCOCC2)C1=O (stereo not drawn) [Compound T138] | 90 | 70 | 90 | 80 | 70 | 90 | 90 | 90
18 | Cc1cc(-c2ccccc2F)cc(C)c1C1C(=O)CC(CC2CCOCC2)C1=O (stereo not drawn) [Compound T139] | 90 | 60 | 90 | 70 | 100 | 80 | 90 | 90
